Patent publication US20190327965A1, “AGENTS AND METHODS FOR TREATMENT OF PATHOGENS” (Hexima Limited, priority 2014, published 2019)
pIC50: −log10 of the molar value. Bridge positions count the residues as written; N and C are the ends. Peptide text beside a SMILES is read from it.

Key:
[1] = tested on: Colletotrichum graminicola
Saccharomyces cerevisiae = assay: Growth inhibition by hairpin peptide alone, Saccharomyces cerevisiae; assay type: cell-based; settings: hairpin peptide on its own
Excerpt: Some α-hairpinin and β-hairpin peptides show efficacy on their own against pathogens at a concentration higher than the concentration used in a combination with a plant defensin.

Compound | pIC50 (Candida albicans) | pIC50 (Fusarium graminearum) | pIC50 [1] | pIC50 (Trichophyton rubrum) | pIC50 (Saccharomyces cerevisiae)
CC(C)[C@@H]1NC(=O)[C@H](CCCNC(=N)N)NC(=O)[C@H](Cc2ccccc2)NC(=O)[C@@H](NC(=O)[C@H](Cc2c[nH]c3ccccc23)NC(=O)[C@H](CCCNC(=N)N)NC(=O)[C@@H](N)CCCNC(=N)N)CSSC[C@@H](C(=O)N[C@@H](CCCNC(=N)N)C(N)=O)NC(=O)[C@H](CCCCN)NC(=O)[C@H](CCCNC(=N)N)NC(=O)[C@H](Cc2ccc(O)cc2)NC(=O)[C@@H]2CSSC[C@H](NC1=O)C(=O)N[C@@H](Cc1ccc(O)cc1)C(=O)N[C@@H](CCCNC(=N)N)C(=O)NCC(=O)N[C@@H](Cc1ccccc1)C(=O)N2 [Polyphemusin I] (H-RRWCFRVCYRGFCYRKCR-NH2; disulfide 4-17, 8-13; N-terminus and C-terminus assumed) | 5.40 | 5.52 | 5.22 | 6.00 | –
CSCC[C@@H]1NC(=O)[C@H](CCCNC(=N)N)NC(=O)[C@@H](NC(=O)[C@H](Cc2c[nH]c3ccccc23)NC(=O)[C@H](CCC(N)=O)NC(=O)[C@H](CC(C)C)NC(=O)[C@H](CC(=O)O)NC(=O)CNC(=O)[C@@H](N)CCCCN)CSSC[C@@H](C(=O)N[C@@H](CCCNC(=N)N)C(=O)N[C@@H](CCC(N)=O)C(=O)N[C@@H](CCCNC(=N)N)C(=O)N[C@@H](Cc2c[nH]cn2)C(=O)N[C@@H](CCCNC(=N)N)C(=O)NCC(=O)O)NC(=O)[C@H](CCC(=O)O)NC(=O)[C@H](CCCNC(=N)N)NC(=O)[C@H](CCC(=O)O)NC(=O)[C@@H]2CSSC[C@H](NC(=O)CNC1=O)C(=O)N[C@@H](CCC(N)=O)C(=O)N[C@@H](Cc1c[nH]c3ccccc13)C(=O)N[C@@H](CCC(N)=O)C(=O)N[C@@H](Cc1ccc(O)cc1)C(=O)NCC(=O)N[C@@H](CCCCN)C(=O)N[C@@H](CC(=O)O)C(=O)N[C@@H](CCC(N)=O)C(=O)NCC(=O)N[C@@H](CCCNC(=N)N)C(=O)N[C@@H](CCCNC(=N)N)C(=O)N[C@@H](CO)C(=O)N[C@@H](CCC(=O)O)C(=O)N2 [Sit_HPN_100A] (H-KGDLQWCRMGCQWQYGKDQGRRSECERECRQRHRG-OH; disulfide 7-29, 11-25 (inferred); N-terminus and C-terminus assumed) | 5.10 | 5.10 | 4.85 | 4.70 | 5.10
CC[C@H](C)[C@@H]1NC(=O)[C@H](CCCCN)NC(=O)[C@H]([C@@H](C)CC)NC(=O)[C@H](CCC(N)=O)NC(=O)[C@H](CCCNC(=N)N)NC(=O)[C@@H](NC(=O)[C@@H](NC(=O)[C@H](CO)NC(=O)[C@@H](N)CCCNC(=N)N)C(C)C)CSSC[C@@H](C(=O)N[C@H](C(=O)N[C@@H](CC(N)=O)C(=O)N[C@@H](CCCNC(=N)N)C(=O)N2CCC[C@H]2C(=O)N[C@@H](Cc2ccc(O)cc2)C(=O)O)[C@@H](C)O)NC(=O)[C@H](CCCCN)NC(=O)[C@H](Cc2ccc(O)cc2)NC(=O)[C@H](Cc2ccc(O)cc2)NC(=O)[C@@H]2CSSC[C@H](NC1=O)C(=O)N[C@@H](CCCNC(=N)N)C(=O)N[C@@H](CCCNC(=N)N)C(=O)N[C@@H](CCCNC(=N)N)C(=O)NCC(=O)NCC(=O)N2 [Androctonin] (H-RSVCRQIKICRRRGGCYYKCTNRPY-OH; disulfide 4-20, 10-16 (inferred); N-terminus and C-terminus assumed) | 5.15 | 5.15 | 4.89 | 6.00 | –
CSCC[C@@H]1NC(=O)[C@H](CC(C)C)NC(=O)[C@@H]2CSSC[C@H](NC(=O)[C@H](CCCNC(=N)N)NC(=O)[C@H](CCC(=O)O)NC(=O)[C@H](CCCNC(=N)N)NC(=O)[C@@H](NC(=O)[C@H](CCCCN)NC(=O)[C@H](CCCNC(=N)N)NC(=O)[C@H](CCCNC(=N)N)NC(=O)CNC(=O)[C@H](CCC(=O)O)NC(=O)CN)CSSC[C@@H](C(=O)N[C@@H](CCCCN)C(=O)N[C@@H](CO)C(=O)N[C@@H](CCCNC(=N)N)C(=O)N[C@@H](CCC(=O)O)C(=O)N[C@@H](CCC(N)=O)C(=O)N[C@@H](CCC(=O)O)C(=O)O)NC(=O)[C@H](CC(=O)O)NC1=O)C(=O)N[C@@H](CCC(=O)O)C(=O)N[C@@H](CCCNC(=N)N)C(=O)N[C@@H](Cc1c[nH]cn1)C(=O)N[C@@H](Cc1c[nH]cn1)C(=O)N[C@@H](CCCNC(=N)N)C(=O)NCC(=O)NCC(=O)N[C@@H](CC(=O)O)C(=O)N[C@@H](Cc1c[nH]c3ccccc13)C(=O)N[C@@H](Cc1c[nH]c3ccccc13)C(=O)N[C@@H](CCC(=O)O)C(=O)N[C@@H](CCCCN)C(=O)N[C@@H](CCC(N)=O)C(=O)N[C@@H](CCCNC(=N)N)C(=O)N2 [Sbi_HPN_104C] (H-GEGRRKCRERCERHHRGGDWWEKQRCLMDCKSREQE-OH; disulfide 7-30, 11-26 (inferred); N-terminus and C-terminus assumed) | 5.15 | 5.15 | 4.80 | – | < 4.70
